Measured values taken from article PMC3006138, “Fexinidazole – A New Oral Nitroimidazole Drug Candidate Entering Clinical Development for the Treatment of Sleeping Sickness” (PLoS Neglected Tropical Diseases, 2010).
Like-named read-outs stand apart in the source and are kept apart here.

Assay: Rat 28-day toxicokinetics
Format: in vivo
Details: plasma, po; for half-life: read-out: apparent terminal half-life (converted); for AUC: read-out: AUC within 24 hours post dosing
Protocol: In the rat repeated-dose toxicokinetic study, fexinidazole was administered orally by gavage once a day for 28 consecutive days to ten or fifteen Crl:CD (SD)IGS BR rats/sex/group at doses of 50, 200, or 800 mg/kg/day. A control group received the vehicle alone (5% Tween 80/0.5% methocel). Ten animals/sex/group were sacrificed at the end of the treatment period on day 29 or 30 of study. The remaining 5 animals/sex/group in the control and high-dose groups were sacrificed on day 43 at the end of a 2-weeks observation period. Systemic exposure to fexinidazole and its sulfoxide and sulfone metabolites was evaluated in three additional animals/sex/group. Samples were taken at predose, and 30 min, 1, 2, 4, 8 and 24 h after dosing on days 1, 14, and 28, and in addition at 48 and 72 h after treatment on day 28.
Toxicokinetic Report for the study No. 0504-2007
SD Standard deviation of the mean […]
t1/2,z Terminal half-life tmax Time to peak plasma concentration
ULOQ Upper limit of quantification
The study was conducted according to the study protocol and related amendment.
Fexinidazole was orally given by gavage once a day for 28 days to male and female Sprague Dawley rats according to the following scheme
Fexinidazole was suspended with 5% Tween 80 in 0.5% Methyl cellulose 400 cP.
6.2. Sample Collection and Handling
Blood samples (about 0.25 mL/sampling time) were withdrawn from retro-orbital sinus plexus under isofluorane anesthesia and put in heparinized plastic tubes kept on a ice-water bath, then centrifuged for 10 min at 1200g at +4°C and two aliquots of about 50 μL of plasma were stored in a freezer at -80°C until analysis. Blood was taken from three rats/gender/dose on Days 1 and 14 at pre-dose and 0.5, 1, 2, 4, 8 and 24 hours after dosing, on Day 28 at pre-dose and 1, 2, 4, 8, 24, 48 and 72 hours after dosing. After the administration of the vehicle, the samples were taken from three rats/gender at pre-dose and […]
6.3. Bioanalytical Method
Rat plasma concentrations of Fexinidazole and its sulfoxide (M1) and sulfone (M2) metabolites were determined by a validated LC/MS/MS method. The calibration range for the assay was 5-1000 ng/mL for Fexinidazole and 25-25000 ng/mL for M1 and M2.
Study samples containing analytes concentrations above the upper limit of quantitation were diluted with blank matrix prior to analysis.
6.4. Pharmacokinetic Calculations
Pharmacokinetic evaluation was carried out using non-compartmental approach with the aid […]
Excel spreadsheet (Microsoft Inc., Seattle, USA). […]
In the calculations, the undetectable concentrations between detectable ones were ignored.
After each dose level, Cmax and tmax of Fexinidazole and sulfoxide and sulfone metabolites […]
linear trapezoidal rule up to the last detectable concentration. On Day 28, since the blood […]
24 hours post dosing was calculated and denoted AUC0-24. This AUC was calculated in order to compare AUC values on Day 28 to those on Day 1 and Day 14. On Day 28, in addition, the half-life of the terminal phase, t1/2,z, was determined by linear regression analysis of the natural-log concentration vs. time curve, where t1/2,z = ln(2)/slope of the regression line.
Fexinidazole and metabolites accumulation ratios, based on Cmax (RA,Cmax), AUC0-24 (RA,AUC0-24) and AUC0-t(last) (RA,AUC0-t(last)), were calculated as the ratio between the parameters obtained on Day 14 and Day 28 to the corresponding one at Day 1. […]
pharmacokinetic parameters of each compound sorted by dose, gender and day of dosing. […]
compound are reported in Tables 1 and 2, whilst individual and mean parameters of each […]
Individual and mean (±SD, CV%) plasma
2A1 - 19A1 of Appendix 1. Individual plasma concentrations of Fexinidazole and both metabolites are plot in Figures 1 - 9, whilst the mean concentrations are plot in Figures 10 - 15. Mean normalized Cmax and AUC0-t(last) values of Fexinidazole and metabolites vs. dose are plot in Figures 16 - 21.
In-study bioanalytical validation data are reported in Appendix 2. All analytical batches met […]

[1] = Sprague-Dawley (Crl:CD (SD)IGS BR), 50 mg/kg/day, 50 mg/kg/day po, day 1
[2] = Sprague-Dawley (Crl:CD (SD)IGS BR), 50 mg/kg/day, 50 mg/kg/day po, day 14
[3] = Sprague-Dawley (Crl:CD (SD)IGS BR), 200 mg/kg/day, 200 mg/kg/day po, day 1
[4] = both sexes, Sprague-Dawley (Crl:CD (SD)IGS BR), 200 mg/kg/day, 200 mg/kg/day po, day 14
[5] = both sexes, Sprague-Dawley (Crl:CD (SD)IGS BR), 800 mg/kg/day, 800 mg/kg/day po, day 1
[6] = both sexes, Sprague-Dawley (Crl:CD (SD)IGS BR), 800 mg/kg/day, 800 mg/kg/day po, day 14

Cn1c([N+](=O)[O-])cnc1COc1ccc(S(C)(=O)=O)cc1 [Fexinidazole sulfone]
half-life (Sprague Dawley (Crl:CD (SD)IGS BR), 50 mg/kg/day, Day 28, female): 13 h
half-life (Sprague Dawley (Crl:CD (SD)IGS BR), 50 mg/kg/day, Day 28, male): 6.1 ± 1.2 h
half-life (Sprague Dawley (Crl:CD (SD)IGS BR), 200 mg/kg/day, Day 28, female): 7.3 h
half-life (Sprague Dawley (Crl:CD (SD)IGS BR), 200 mg/kg/day, Day 28, male): 7.5 h
half-life (Sprague Dawley (Crl:CD (SD)IGS BR), 800 mg/kg/day, Day 28, female (n=2)): 11 h
half-life (Sprague Dawley (Crl:CD (SD)IGS BR), 800 mg/kg/day, Day 28, male): 10 h
Cmax [1]: 2920 ± 2260 ng/mL
Tmax [1]: 7.33 ± 1.63 h
AUC(0-t) (Sprague-Dawley (Crl:CD (SD)IGS BR), 50 mg/kg/day, 50 mg/kg/day po, day 1, read-out: AUC0-t(last)): 36.1 ± 28.6 µg·h/mL
Cmax [2]: 6380 ± 2300 ng/mL
Tmax [2]: 6 ± 2.19 h
AUC(0-t) (Sprague-Dawley (Crl:CD (SD)IGS BR), 50 mg/kg/day, 50 mg/kg/day po, day 14, read-out: AUC0-t(last)): 89.6 ± 34.1 µg·h/mL
AUC (Sprague-Dawley (Crl:CD (SD)IGS BR), 50 mg/kg/day, Day 28, female): 175 µg·h/mL
AUC (Sprague-Dawley (Crl:CD (SD)IGS BR), 50 mg/kg/day, Day 28, male): 106 µg·h/mL
Cmax [3]: 9290 ± 1750 ng/mL
Tmax [3]: 8 h
AUC (Sprague-Dawley (Crl:CD (SD)IGS BR), 200 mg/kg/day, Day 28, female): 341 µg·h/mL
AUC (Sprague-Dawley (Crl:CD (SD)IGS BR), 200 mg/kg/day, Day 28, male): 341 µg·h/mL
AUC (Sprague-Dawley (Crl:CD (SD)IGS BR), 800 mg/kg/day, Day 28, female (n=2)): 572 µg·h/mL
AUC (Sprague-Dawley (Crl:CD (SD)IGS BR), 800 mg/kg/day, Day 28, male): 459 µg·h/mL
AUC(0-t) (both sexes, Sprague-Dawley (Crl:CD (SD)IGS BR), 200 mg/kg/day, 200 mg/kg/day po, day 1, read-out: AUC0-t(last)): 126 ± 17.5 µg·h/mL
Cmax [4]: 20200 ± 2420 ng/mL
Tmax [4]: 7.33 ± 1.63 h
AUC(0-t) (both sexes, Sprague-Dawley (Crl:CD (SD)IGS BR), 200 mg/kg/day, 200 mg/kg/day po, day 14, read-out: AUC0-t(last)): 287 ± 36.5 µg·h/mL
Cmax [5]: 42600 ± 13100 ng/mL
Tmax [5]: 10.7 ± 6.53 h
AUC(0-t) (both sexes, Sprague-Dawley (Crl:CD (SD)IGS BR), 800 mg/kg/day, 800 mg/kg/day po, day 1, read-out: AUC0-t(last)): 574 ± 256 µg·h/mL
Cmax [6]: 40500 ± 13000 ng/mL
Tmax [6]: 6.67 ± 2.07 h
AUC(0-t) (both sexes, Sprague-Dawley (Crl:CD (SD)IGS BR), 800 mg/kg/day, 800 mg/kg/day po, day 14, read-out: AUC0-t(last)): 543 ± 252 µg·h/mL
Cmax (female, Sprague Dawley (Crl:CD (SD)IGS BR), 50 mg/kg, Day 1, female): 4420 ± 2410 ng/mL
AUC(0-t) (female, Sprague Dawley (Crl:CD (SD)IGS BR), 50 mg/kg, Day 1, female, read-out: AUC0-t(last)): 55.8 ± 28.1 µg·h/mL
Cmax (female, Sprague Dawley (Crl:CD (SD)IGS BR), 50 mg/kg/day, Day 28, female): 10700 ng/mL
Cmax (female, Sprague Dawley (Crl:CD (SD)IGS BR), 200 mg/kg, Day 1, female): 10000 ± 815 ng/mL
AUC(0-t) (female, Sprague Dawley (Crl:CD (SD)IGS BR), 200 mg/kg, Day 1, female, read-out: AUC0-t(last)): 134 ± 10.8 µg·h/mL
Cmax (female, Sprague Dawley (Crl:CD (SD)IGS BR), 200 mg/kg/day, Day 28, female): 21400 ng/mL
Cmax (female, Sprague Dawley (Crl:CD (SD)IGS BR), 800 mg/kg, Day 1, female): 44800 ± 20100 ng/mL
AUC(0-t) (female, Sprague Dawley (Crl:CD (SD)IGS BR), 800 mg/kg, Day 1, female, read-out: AUC0-t(last)): 683 ± 241 µg·h/mL
Cmax (female, Sprague Dawley (Crl:CD (SD)IGS BR), 800 mg/kg/day, Day 28, female (n=2)): 41900 ng/mL
AUC(0-t) (female, Sprague-Dawley (Crl:CD (SD)IGS BR), 50 mg/kg/day, Day 28, female, read-out: AUC0-t(last)): 197 µg·h/mL
AUC(0-t) (female, Sprague-Dawley (Crl:CD (SD)IGS BR), 200 mg/kg/day, Day 28, female, read-out: AUC0-t(last)): 448 µg·h/mL
AUC(0-t) (female, Sprague-Dawley (Crl:CD (SD)IGS BR), 800 mg/kg/day, Day 28, female (n=2), read-out: AUC0-t(last)): 738 µg·h/mL
Cmax (male, Sprague Dawley (Crl:CD (SD)IGS BR), 50 mg/kg, Day 1, male): 1420 ± 393 ng/mL
AUC(0-t) (male, Sprague Dawley (Crl:CD (SD)IGS BR), 50 mg/kg, Day 1, male, read-out: AUC0-t(last)): 16.5 ± 9.76 µg·h/mL
Cmax (male, Sprague Dawley (Crl:CD (SD)IGS BR), 50 mg/kg/day, Day 28, male): 7750 ng/mL
Cmax (male, Sprague Dawley (Crl:CD (SD)IGS BR), 200 mg/kg, Day 1, male): 8550 ± 2310 ng/mL
AUC(0-t) (male, Sprague Dawley (Crl:CD (SD)IGS BR), 200 mg/kg, Day 1, male, read-out: AUC0-t(last)): 119 ± 21.9 µg·h/mL
Cmax (male, Sprague Dawley (Crl:CD (SD)IGS BR), 200 mg/kg/day, Day 28, male): 24200 ng/mL
Cmax (male, Sprague Dawley (Crl:CD (SD)IGS BR), 800 mg/kg, Day 1, male): 40300 ± 1560 ng/mL
AUC(0-t) (male, Sprague Dawley (Crl:CD (SD)IGS BR), 800 mg/kg, Day 1, male, read-out: AUC0-t(last)): 465 ± 264 µg·h/mL
Cmax (male, Sprague Dawley (Crl:CD (SD)IGS BR), 800 mg/kg/day, Day 28, male): 33000 ng/mL
AUC(0-t) (male, Sprague-Dawley (Crl:CD (SD)IGS BR), 50 mg/kg/day, Day 28, male, read-out: AUC0-t(last)): 113 µg·h/mL
AUC(0-t) (male, Sprague-Dawley (Crl:CD (SD)IGS BR), 200 mg/kg/day, Day 28, male, read-out: AUC0-t(last)): 387 µg·h/mL
AUC(0-t) (male, Sprague-Dawley (Crl:CD (SD)IGS BR), 800 mg/kg/day, Day 28, male, read-out: AUC0-t(last)): 509 µg·h/mL
